Values of other authors in publication PMC9798770 (ACS Omega, 2022).

System: SARS-CoV-2

## Cc1ccc(N)cc1C(=O)N[C@H](C)c1cccc2ccccc12 [GRL0617]
read-out: EC50, antiviral activity
  EC50: ~20 µM

## C[C@H](c1cccc2ccccc12)N(C)Cc1ccc(O)cc1 [Jun9-72-2]
  antiviral activity compared with GRL0617: higher
